Assay results: article PMC6691788, “Design and synthesis of phthalazine-based compounds as potent anticancer agents with potential antiangiogenic activity via VEGFR-2 inhibition” (Journal of Enzyme Inhibition and Medicinal Chemistry, 2019)

Tests used:
Test in all cases: NCI 60 cell panel SRB screen
T-47D = type: cell-based; conditions: Homo sapiens, T47D, read-out: percent cell growth promotion
SK-OV-3 = type: cell-based; conditions: Homo sapiens; SK-OV-3, single dose 10 μM; read-out: percent cell growth promotion
LOX IMVI = type: cell-based; conditions: Homo sapiens, read-out: percent cell growth promotion
IGROV1 = type: cell-based; conditions: Homo sapiens, IGROV-1; IGROV1, single dose 10 μM; read-out: percent cell growth promotion
K-562 = type: cell-based; conditions: Homo sapiens, K562; K-562, single dose 10 μM; read-out: percent cell growth promotion
MDA-MB-435 = type: cell-based; conditions: Homo sapiens, MDA-MB-435, read-out: percent cell growth promotion
OVCAR-5 = type: cell-based; conditions: Homo sapiens; OVCAR-5, single dose 10 μM; read-out: percent cell growth promotion
EKVX = type: cell-based, human; conditions: single dose 10 μM
SK-MEL-2 = type: cell-based; conditions: SK-MEL-2, single dose 10 μM
SF-539 = type: cell-based, human; conditions: SF-539, single dose 10 μM

O=C(Nc1ccc(Nc2nncc3ccccc23)cc1)c1ccc(Cl)cc1 [Compound 5b, 4-Chloro-N-(4-(phthalazin-1-ylamino)phenyl)benzamide]
activity at 10 µM (T-47D): 97.6%
activity at 10 µM (SK-OV-3): 87.3%
activity at 10 µM (LOX IMVI): 99.9%
activity at 10 µM (IGROV1): 102%
activity at 10 µM (K-562): 102%
activity at 10 µM (MDA-MB-435): 103%

Cc1nnc(Nc2ccc(NC(=O)c3ccc(Cl)cc3)cc2)c2ccccc12 [Compound 5d, 4-Chloro-N-(4–(4-methylphthalazin-1-ylamino)phenyl)benzamide]
activity at 10 µM (OVCAR-5): 98.5%
activity at 10 µM (T-47D): 79.8%
activity at 10 µM (SK-OV-3): 83.5%
activity at 10 µM (LOX IMVI): 91.9%
activity at 10 µM (IGROV1): 101%
activity at 10 µM (K-562): 101%
activity at 10 µM (MDA-MB-435): 102%

Cc1nnc(Oc2ccc(NC(=O)Nc3ccc(Cl)cc3)cc2)c2ccccc12 [Compound 7e, 1–(4-Chlorophenyl)-3–(4-(4-methylphthalazin-1-yloxy)phenyl)urea]
activity at 10 µM (OVCAR-5): 119%
activity at 10 µM (T-47D): 57.9%
activity at 10 µM (SK-OV-3): 69.5%
activity at 10 µM (LOX IMVI): 78.1%
activity at 10 µM (IGROV1): 90.9%
activity at 10 µM (K-562): 61.1%
activity at 10 µM (MDA-MB-435): 79.2%

CCOC(=O)N1CCN(c2nncc3ccccc23)CC1 [Compound 8a, Ethyl 4-(phthalazin-1-yl)piperazine-1-carboxylate]
activity at 10 µM (OVCAR-5): 128%
activity at 10 µM (T-47D): 100%
activity at 10 µM (SK-OV-3): 105%
activity at 10 µM (LOX IMVI): 98.7%
activity at 10 µM (IGROV1): 120%
activity at 10 µM (K-562): 110%
activity at 10 µM (MDA-MB-435): 105%

c1ccc(N2CCN(c3nncc4ccccc34)CC2)nc1 [Compound 8d, 1–(4-(Pyridin-2-yl)piperazin-1-yl)phthalazine]
activity at 10 µM (OVCAR-5): 105%
activity at 10 µM (T-47D): 101%
activity at 10 µM (SK-OV-3): 104%
activity at 10 µM (LOX IMVI): 97.5%
activity at 10 µM (IGROV1): 116%
activity at 10 µM (K-562): 106%
activity at 10 µM (MDA-MB-435): 104%

CCOC(=O)N1CCN(c2nnc(C)c3ccccc23)CC1 [Compound 8f, Ethyl 4–(4-methylphthalazin-1-yl)piperazine-1-carboxylate]
activity at 10 µM (OVCAR-5): 95%
activity at 10 µM (T-47D): 87.2%
activity at 10 µM (SK-OV-3): 101%
activity at 10 µM (LOX IMVI): 106%
activity at 10 µM (IGROV1): 109%
activity at 10 µM (K-562): 100%
activity at 10 µM (MDA-MB-435): 97.4%

Cc1nnc(N2CCN(c3ccccc3)CC2)c2ccccc12 [Compound 8g, 1-Methyl-4–(4-phenylpiperazin-1-yl)phthalazine]
activity at 10 µM (OVCAR-5): 98.2%
activity at 10 µM (T-47D): 90.5%
activity at 10 µM (SK-OV-3): 96.5%
activity at 10 µM (LOX IMVI): 103%
activity at 10 µM (IGROV1): 112%
activity at 10 µM (K-562): 116%
activity at 10 µM (MDA-MB-435): 99.5%

Cc1nnc(N2CCN(c3ccccc3F)CC2)c2ccccc12 [Compound 8h, 1–(4-(2-Fluorophenyl)piperazin-1-yl)-4-methylphthalazine]
activity at 10 µM (OVCAR-5): 87.9%
activity at 10 µM (T-47D): 82.3%
activity at 10 µM (SK-OV-3): 105%
activity at 10 µM (LOX IMVI): 106%
activity at 10 µM (IGROV1): 109%
activity at 10 µM (K-562): 110%
activity at 10 µM (MDA-MB-435): 93.5%

Cc1nnc(N2CCN(c3ccccn3)CC2)c2ccccc12 [Compound 8i, 1-Methyl-4–(4-(pyridin-2-yl)piperazin-1-yl)phthalazine]
activity at 10 µM (OVCAR-5): 98.2%
activity at 10 µM (T-47D): 96%
activity at 10 µM (SK-OV-3): 108%
activity at 10 µM (LOX IMVI): 102%
activity at 10 µM (IGROV1): 112%
activity at 10 µM (K-562): 101%
activity at 10 µM (MDA-MB-435): 99.6%

O=C(Nc1ccc(Cl)cc1)Nc1ccc(Oc2nnc(Cl)c3ccccc23)cc1 [Compound 13b, 1–(4-Chlorophenyl)-3–(4-(4-chlorophthalazin-1-yloxy)phenyl)urea]
percent cell growth promotion (EKVX): 62.48%
percent cell growth promotion (SK-MEL-2): 93.58%
activity at 10 µM (OVCAR-5): 113%
activity at 10 µM (T-47D): 70.5%
activity at 10 µM (SK-OV-3): 88.6%
activity at 10 µM (LOX IMVI): 86.2%
percent cell growth promotion (SF-539): 84.86%
activity at 10 µM (IGROV1): 79.2%
activity at 10 µM (K-562): 93.2%
activity at 10 µM (MDA-MB-435): 93.9%
